# Legend:
# Irpex lacteus [1] = test: Soil block test (AWPA E10-01, modified), birch blocks; conditions: for Average weight loss: 3 months
# Description: (§1) For the soil block tests, the protocol listed as AWPA (American Wood Preservers' Association) standard E10-01 was used, with some modifications that are noted.
# (§2) For pressure treatment, wood blocks (¾ inch cubes) were made from Southern yellow pine (SYP) or birch dried at about 40° C. to constant weight, and weighed before pressure treatment. In a typical experiment, blocks were submerged in an appropriate treatment solution in an autoclave. A vacuum of 10 to 15 inch Hg (380 to 510 torr) was applied for 30 min, followed by a pressure of 150 psi (1.034 MPa) for 1 hr. The treatment solution was then removed and a vacuum of 10 to 15 inch Hg (380 to 510 torr) was applied again to the blocks for 15 min. Excess treatment solution on the surface was allowed to evaporate (30 min in a laboratory fume hood) before the blocks were either weighed or stored in a sealed plastic bag and weighed at a later time.
# (§3) For the soil block test, wood blocks were conditioned in a vented incubator at 40° C. until they reached a constant weight (16 to 18 hrs). Blocks were then autoclaved at 100° C. for 30 min under dry cycle. Soil samples with a water holding capacity of 40% were used for these tests. 60 mL of water and 92-100 g of soil were added into a 228 mL French square bottle, and autoclaved at 121° C. for 30 min. A feeder strip, ⅛″×1⅛″×1⅜″ (˜0.31 cm×2.86 cm×3.49 cm), birch for birch blocks and SYP for SYP blocks, was placed on the top of the soil. A testing block was placed on top of the feeder strip and the bottle contents inoculated with an agar strip (˜3 mm×30 mm) containing freshly grown fungus (listed in the results). For brown rot fungi (Postia placenta), SYP blocks and feeder strips were used. For white rot (Irpex lacteus), birch blocks and feeder strips were used. The bottles were loosely capped and allowed to incubate at ˜75% humidity and 25° C. for 3 months. Then the blocks were removed from the bottles and dried at 40° C. to constant weight in a vented incubator (16-18 hr). The weight of each block was determined and the percent weight loss was calculated.
# (§4) Blocks were allowed to age for a week in the fume hood after treatment. Half of the blocks were subjected to leaching with water for an additional week before undergoing the soil block test. For leaching, blocks were placed in a beaker and 30 mL of water per block were added. Blocks were allowed to incubate at room temperature under constant stirring, with daily change of water for one week.
# Postia placenta [2] = test: Soil block test (AWPA E10-01, modified), SYP blocks; conditions: for Average weight loss: 3 months
# Description: as §1, §2, §3, §4
# SYP blocks were pressure-treated with this solution as above (Example 2). After treatment, the blocks were divided into groups and allowed to age in the hood for either two days or 14 days. The blocks were then placed in a beaker and submerged under water (50 mL water per block), under constant stirring for two weeks. […]
# [3] = system: Phanerochaete chrysosporium; test: 6-well plate assay, minimal inhibitory concentration; assay type: cell-based; conditions: Phanerodontia chrysosporium, 168 h; 6-well agar plate; lowest concentration with no growth after seven days; read-out: Effectiveness at Inhibiting Wood-Rotting Fungi, WR3 (minimal inhibitory concentration)
# Description: (§5) The minimal inhibitory concentration of fungicides against eight fungi was determined in 6-well microtiter plates. Minimal inhibitory concentration is defined as the lowest concentration at which no fungus growth is evident after seven days. A group of eight fungi were used in a screen to identify potential active ingredients to preserve wood. The eight fungi, their classification, and the growth media used to culture them are listed below:
# (§6) Growth media were purchased from Difco (from Beckton Dickinson and Co., Sparks, Md.). The growth media were added to water to 2% w/v and autoclaved at 121° C. for 30 min. Autoclaved media were allowed to cool down to ˜50° C. Test chemicals were dissolved in DMSO (dimethyl sulfoxide) individually at 10 mg/mL to generate stock solutions. An appropriate amount of a stock solution was then added to the appropriate growth medium at 50° C. to make up the test media containing various concentrations of individual test chemicals. 10 mL of the medium was added to each well of a 6-well plate and allowed to solidify at room temperature. For each plate, the first well had no chemical, and the remaining five wells contained a particular test chemical at five different concentrations. Eight such plates were prepared for each chemical, using the eight media listed above for the eight test organisms.
# (§7) After the media solidified and cooled, a plug (˜2 mm×2 mm) of agar growth medium with fresh grown mycelium from the appropriate fungal culture was used to inoculate each well. The plate was placed in an incubator, and the growth of the fungus monitored. After 4 to 7 days, the growth was scored manually.
# Chaetomium globosum = test: as above; assay type: cell-based; conditions: Chaetomium globosum, 168 h; 6-well agar plate; lowest concentration with no growth after seven days; read-out: Effectiveness at Inhibiting Wood-Rotting Fungi, SR1 (minimal inhibitory concentration)
# Description: as §5, §6, §7
# Gloeophyllum trabeum = test: as above; assay type: cell-based; conditions: Gloeophyllum trabeum, 168 h; 6-well agar plate; lowest concentration with no growth after seven days; read-out: Effectiveness at Inhibiting Wood-Rotting Fungi, BR2 (minimal inhibitory concentration)
# Description: as §5, §6, §7
# Irpex lacteus [4] = test: as above; assay type: cell-based; conditions: Irpex lacteus, 168 h; 6-well agar plate; lowest concentration with no growth after seven days; read-out: Effectiveness at Inhibiting Wood-Rotting Fungi, WR2 (minimal inhibitory concentration)
# Description: as §5, §6, §7
# Postia placenta [5] = test: as above; assay type: cell-based; conditions: Rhodonia placenta, 168 h; 6-well agar plate; lowest concentration with no growth after seven days; read-out: Effectiveness at Inhibiting Wood-Rotting Fungi, BR1 (minimal inhibitory concentration)
# Description: as §5, §6, §7
# Antrodia vaillantii = test: as above; assay type: cell-based; conditions: Fibroporia vaillantii, 168 h; 6-well agar plate; lowest concentration with no growth after seven days; read-out: Effectiveness at Inhibiting Wood-Rotting Fungi, BR3 (minimal inhibitory concentration)
# Description: as §5, §6, §7
# Trametes versicolor = test: as above; assay type: cell-based; conditions: Trametes versicolor, 168 h; 6-well agar plate; lowest concentration with no growth after seven days; read-out: Effectiveness at Inhibiting Wood-Rotting Fungi, WR1 (minimal inhibitory concentration)
# Description: as §5, §6, §7
structure (smiles),measurement,setting,value
C[Si](Cn1cncn1)(c1ccc(F)cc1)c1ccc(F)cc1 [Flusilazole],Average weight loss,Irpex lacteus [1]; birch blocks pressure-treated with 50 ppm solution in 5% acetic acid,19.5%
same,Average weight loss,Irpex lacteus [1]; birch blocks pressure-treated with 100 ppm solution in 5% acetic acid,21.7%
same,Average weight loss,Irpex lacteus [1]; birch blocks pressure-treated with 200 ppm solution in 5% acetic acid,11%
same,Protection against decay (in words),"Irpex lacteus [1]; birch blocks, 200 ppm flusilazole solution",significantly protected from decay
same,Average weight loss,Postia placenta [2]; SYP blocks pressure-treated with 50 ppm solution in 5% acetic acid,29%
same,Average weight loss,Postia placenta [2]; SYP blocks pressure-treated with 100 ppm solution in 5% acetic acid,19%
same,Average weight loss,Postia placenta [2]; SYP blocks pressure-treated with 200 ppm solution in 5% acetic acid,3.3%
same,Protection against decay (in words),"Postia placenta [2]; SYP blocks, 200 ppm flusilazole solution",protected against decay
same,MIC,[3],1 to 100 µg/mL
same,MIC,Chaetomium globosum,< 1 µg/mL
same,MIC,Gloeophyllum trabeum,1 to 100 µg/mL
same,MIC,Irpex lacteus [4],1 to 100 µg/mL
same,MIC,Postia placenta [5],< 1 µg/mL
same,MIC,Antrodia vaillantii,< 1 µg/mL
same,MIC,Trametes versicolor,< 1 µg/mL

# — patent US20060029743A1, “Wood preservatives and methods of wood preservation” (priority 2004, published 2006)
